Where two headings read alike, the source gives them in different places.

Test [1] has as its system IFNγ. The experiment in a line: Cytokine assay: IFNγ release from PHA-L stimulated human PBMCs. The format is cell-based. The method, then: (§1) Cytokine inhibitory activity is determined by measuring the effect of test agent on the release of the cytokines IL-4, IL-13 and IFNγ from human peripheral blood mononuclear cells (PBMCs) stimulated with the T-cell mitogen phytohemagglutinin-L (PHA-L). At the time of assay, human PBMCs (Astarte Biologics) are removed from cryopreservation, thawed quickly at 37° C., diluted in assay medium (RPMI-Gibco 1640 medium, 10% heat inactivated fetal bovine serum (HIFBS), 2 mM glutamine and 10 mM HEPES pH 7.4) and then centrifuged at 250×g for 5 minutes. The resulting cell pellet is re-suspended in assay medium to a concentration of approximately 5×10^6 cells/mL and 50 μL of this cell suspension (approximately 250,000 cells) is added to each well of a 384-well cell culture microtiter plate (Perkin Elmer). Varying concentrations of test compound are then diluted in assay medium and added to the assay plate wells in a volume of 25 μL. After −10 minutes at room temperature (21° C.) the cells are stimulated by the addition of 25 μL of PHA-L (14 μg/mL; Millipore) and the assay plate is placed in an incubator at 37° C. in a humidified environment in 5% carbon dioxide. The final assay conditions are approximately 250,000 human PBMCs per well in assay medium containing 3.5 μg/mL PHA-L and the indicated final concentration of test compound (approximately 10 μM to […] by 4-fold dilution). The final concentration of DMSO in the assay is approximately 0.25%. After 48 hours, the assay plate is removed from the incubator and centrifuged at 250×g for 5 minutes. A portion of the resulting cell supernatant is then used to determine the amount of IL-4, IL-13 and IFNγ in each well. Cytokine measurements are made using human IL-4, IL-13 or IFNγ HTRF assay kits (CisBio) following the manufacturer's assay protocol. The concentrations and resulting effect values for tested compounds are plotted and the concentration of compound required for 50% effect (IC50) is determined with a four-parameter logistic dose response equation (E-WorkBook, ID Business Solutions Ltd.) and shown in Table 17.

For test [2], the system named is IL-4. Description: Cytokine assay: IL-4 release from PHA-L stimulated human PBMCs. It is filed as cell-based. As to conditions: read-out: IL4 IC50. The method, then: as §1
The target in test [3] is PDE4B (aa 152-484, Uniprot ID Q07343) (Homo sapiens (Human), UniProt Q07343). Description: PDE4 SPA assay (scintillation proximity assay). As to conditions: read-out: PDE4B2 IC50. It is filed as biochemical. The method, then: Phosphodiesterase (PDE) activity is determined by measuring the effect of a test agent on the activity of the PDE4B enzyme in a scintillation proximity assay (SPA). At the time of assay, approximately 30 μL of PDE4B (aa 152-484, Uniprot ID Q07343) in 50 mM Tris pH 7.5, 1.3 mM MgC2, 0.004% Brij 35 is added to a 384 well white clear bottom polystyrene plate (Corning) containing 1 μL of varying concentrations of test compound. After −10 minutes at room temperature (RT; 21° C.), the assay is initiated by the addition of 20 μL of a mixture of ^3H-labeled (adenosine 3′, 5′-cyclic phosphate, ammonium salt, [2,8-^3H]; Perkin Elmer) and unlabeled cAMP. The final assay conditions are approximately 81.6 pM PDE4B in 50 mM Tris pH 7.5, 1.3 mM MgCl2, 0.004% Brij 35, 1 μM ^3H-labeled/unlabeled cAMP (1425 dpm/pmol) and the indicated final concentration of test compound (approximately 10 μM to […] by 4-fold dilution). The final concentration of DMSO in the assay is approximately 2.0%. After 30 minutes at RT, the assay is terminated by the addition of approximately 20 μL of an aqueous solution of PDE YSI SPA beads (8 mg/mL in water; Perkin Elmer). The beads are allowed to settle for at least 2 hours and the plate is then counted on a MicroBeta2 (Perkin Elmer). The concentrations and resulting effect values for the tested compound are plotted and the concentration of compound required for 50% effect (IC50) is determined with a four-parameter logistic dose response equation (E-WorkBook, ID Business Solutions Ltd.) and shown in Table 17.

Test [4] concerns IL-13. The experiment in a line: Cytokine assay: IL-13 release from PHA-L stimulated human PBMCs. As to conditions: read-out: IL13 IC50. It is filed as cell-based. The method, then:
as §1

Chain of PDE4B (aa 152-484, Uniprot ID Q07343) (Q07343 324-656): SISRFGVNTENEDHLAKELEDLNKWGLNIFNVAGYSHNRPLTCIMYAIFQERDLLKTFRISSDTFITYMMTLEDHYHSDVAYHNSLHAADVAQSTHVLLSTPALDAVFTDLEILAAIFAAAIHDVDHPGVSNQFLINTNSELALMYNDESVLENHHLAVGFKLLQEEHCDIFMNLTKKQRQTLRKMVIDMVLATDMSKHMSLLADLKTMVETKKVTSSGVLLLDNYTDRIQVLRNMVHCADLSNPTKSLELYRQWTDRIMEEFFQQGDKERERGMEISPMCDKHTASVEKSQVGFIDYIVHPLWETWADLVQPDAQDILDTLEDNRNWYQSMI

With `CCCOc1nc(-c2cncc(C3COB(O)C3)c2)ccc1OC` (single isomer, unassigned) [Example 61, 4-(5-methoxy-6-propoxy-[2,3′-bipyridin]-5′-yl)-1,2-oxaborolan-2-ol], the IC50 came to 2.12 nM in test [1] (Homo sapiens, PBMC); 0.73 nM in test [2]; 0.53 nM in test [3]; 499 nM in test [4].

Regarding `CCCOc1nc(-c2cncc(C3COB(O)C3)c2)ccc1OC` (single isomer, unassigned) [Example 62, 4-(5-methoxy-6-propoxy-[2,3′-bipyridin]-5′-yl)-1,2-oxaborolan-2-ol], the IC50 in test [1] is 1.44 nM; in test [2], 2.66 nM; in test [3], 0.28 nM; in test [4], 2570 nM.

On to `COc1ccc(-c2cccc(C3COB(O)C3)n2)cc1OC1CCCC1` (single isomer, unassigned) [Example 66, 4-(6-(3-(cyclopentyloxy)-4-methoxyphenyl)pyridin-2-yl)-1,2-oxaborolan-2-ol], for which the IC50 in test [1] amounted to 0.71 nM; in test [2] (Homo sapiens, PBMC), 86.5 nM; in test [3] it was 2.15 nM; in test [4], 327 nM.

Regarding `COc1ccc(-c2cccc(C3COB(O)C3)n2)cc1OC1CCCC1` (single isomer, unassigned) [Example 67, 4-(6-(3-(cyclopentyloxy)-4-methoxyphenyl)pyridin-2-yl)-1,2-oxaborolan-2-ol], the IC50 was determined as 12.6 nM in test [1], 99.9 nM in test [2], 4.02 nM in test [3] and 759 nM in test [4].

With `CCOc1c(OC)ccc(-c2cncc(C3COB(O)C3)c2)c1F` (single isomer, unassigned) [Example 74, 4-(5-(3-ethoxy-2-fluoro-4-methoxyphenyl)pyridin-3-yl)-1,2-oxaborolan-2-ol], the IC50 is 2.71 nM in test [1] (Homo sapiens, PBMC); 10.9 nM in test [2] (Homo sapiens, PBMC); 3.04 nM in test [3]; 768 nM in test [4] (Homo sapiens, PBMC).

As for `CCCOc1cc(-c2cncc(C3COB(O)C3)c2C)ccc1OC` (single isomer, unassigned) [Example 85, 4-(5-(4-methoxy-3-propoxyphenyl)-4-methylpyridin-3-yl)-1,2-oxaborolan-2-ol], the IC50 in test [1] (Homo sapiens, PBMC) was 0.56 nM; in test [2] (Homo sapiens, PBMC), 0.9 nM; in test [3] it was 0.29 nM; in test [4] (Homo sapiens, PBMC), 541 nM.

For the compound `CCCOc1c(OC)ccc(-c2cccc(C3COB(O)C3)n2)c1C#N` (single isomer, unassigned) [Example 87, 6-(6-(2-hydroxy-1,2-oxaborolan-4-yl)pyridin-2-yl)-3-methoxy-2-propoxybenzonitrile], the IC50 was 3.02 nM in test [1] (Homo sapiens, PBMC); 19.1 nM in test [2] (Homo sapiens, PBMC); 5.03 nM in test [3]; 444 nM in test [4] (Homo sapiens, PBMC).

Turning to `CCCOc1cc(-c2cccc(C3COB(O)C3)c2)ccc1OC` (single isomer, unassigned) [Example 89, 4-(4′-methoxy-3′-propoxy-[1,1′-biphenyl]-3-yl)-1,2-oxaborolan-2-ol], the IC50 in test [1] was determined as 3.5 nM; in test [2] it was 26.4 nM; in test [3], 1.21 nM; in test [4], 449 nM.

Take `CCCOc1cc(-c2cccc(C3COB(O)C3)c2)ccc1OC` (single isomer, unassigned) [Example 90, 4-(4′-methoxy-3′-propoxy-[1,1′-biphenyl]-3-yl)-1,2-oxaborolan-2-ol]: the IC50 in test [1] stood at 13.7 nM; in test [2], 290 nM; in test [3] it was 4.33 nM; in test [4], 2790 nM.

On to `CCOc1cc(-c2nc(C3COB(O)C3)cs2)c(F)cc1OC` (single isomer, unassigned) [Example 92, 4-(2-(5-ethoxy-2-fluoro-4-methoxyphenyl)thiazol-4-yl)-1,2-oxaborolan-2-ol], for which the IC50 in test [1] (Homo sapiens, PBMC) was determined as 2.7 nM; in test [2] (Homo sapiens, PBMC), 3.36 nM; in test [3], 1.79 nM; in test [4] (Homo sapiens, PBMC), 947 nM.

On to `CCOc1c(OC)ccc(-c2cncc(C3COB(O)C3)c2)c1C(F)(F)F` (single isomer, unassigned) [Example 95, 4-(5-(3-ethoxy-4-methoxy-2-(trifluoromethyl)phenyl)pyridin-3-yl)-1,2-oxaborolan-2-ol], for which the IC50 amounted to 2.87 nM in test [1] (Homo sapiens, PBMC); 7.36 nM in test [2] (Homo sapiens, PBMC); 4.87 nM in test [3]; 461 nM in test [4] (Homo sapiens, PBMC).

As to `CCOc1ccc(-c2cncc(C3COB(O)C3)c2)cc1OCC` (single isomer, unassigned) [Example 98, 4-(5-(3,4-diethoxyphenyl)pyridin-3-yl)-1,2-oxaborolan-2-ol], the half-maximal inhibitory concentration (IC50) in test [1] was 2.67 nM; in test [2] it was 219 nM; in test [3], 1.13 nM; in test [4], 2800 nM.

For `CCCOc1cc(-c2cncc(C3COB(O)C3)c2)ccc1OCC` (single isomer, unassigned) [Example 105, 4-(5-(4-ethoxy-3-propoxyphenyl)pyridin-3-yl)-1,2-oxaborolan-2-ol], the IC50 in test [1] (Homo sapiens, PBMC) is 5.46 nM; in test [2] (Homo sapiens, PBMC) it was 14.2 nM; in test [3], 3.2 nM; in test [4], 490 nM.

`CCCOc1cc(-c2cncc(C3COB(O)C3)c2)ccc1OCC` (single isomer, unassigned) [Example 106, 4-(5-(4-ethoxy-3-propoxyphenyl)pyridin-3-yl)-1,2-oxaborolan-2-ol]: the IC50 in test [1] was found to be 3.42 nM; in test [2] it was 16.1 nM; in test [3] it was 1.83 nM; in test [4] it was 2080 nM.

With `CCCOc1cc(-c2cncc(C3COB(O)C3)c2)c(F)cc1OC` (single isomer, unassigned) [Example 111, 4-(5-(2-fluoro-4-methoxy-5-propoxyphenyl)pyridin-3-yl)-1,2-oxaborolan-2-ol], the IC50 was 2.95 nM in test [1] (Homo sapiens, PBMC); 3.01 nM in test [2] (Homo sapiens, PBMC); 0.97 nM in test [3]; 496 nM in test [4] (Homo sapiens, PBMC).

For `CCOc1cc(-c2cncc(C3COB(O)C3)c2)cc(C#N)c1OC` (single isomer, unassigned) [Example 119, 3-ethoxy-5-(5-(2-hydroxy-1,2-oxaborolan-4-yl)pyridin-3-yl)-2-methoxybenzonitrile], the IC50 is 7.34 nM in test [1] (Homo sapiens, PBMC); 5.74 nM in test [2] (Homo sapiens, PBMC); 0.72 nM in test [3]; 1190 nM in test [4] (Homo sapiens, PBMC).

On to `COc1cnc(-c2cccc(C3COB(O)C3)c2)nc1OC` (single isomer, unassigned) [Example 123, 4-(3-(4,5-dimethoxypyrimidin-2-yl)phenyl)-1,2-oxaborolan-2-ol], for which the IC50 in test [1] (Homo sapiens, PBMC) turned out to be 3.58 nM; in test [2] (Homo sapiens, PBMC) it was 34.1 nM; in test [3], 3.11 nM; in test [4] (Homo sapiens, PBMC) it was 1640 nM.

For the compound `COc1ccc(-c2cncc(C3COB(O)C3)n2)cc1OC1CCCC1` (single isomer, unassigned) [Example 126, 4-(6-(3-(cyclopentyloxy)-4-methoxyphenyl)pyrazin-2-yl)-1,2-oxaborolan-2-ol], the IC50 was found to be 0.79 nM in test [1] (Homo sapiens, PBMC); 7.21 nM in test [2] (Homo sapiens, PBMC); 0.85 nM in test [3]; 680 nM in test [4] (Homo sapiens, PBMC).

Turning to `CCCOc1cc(-c2cccc(C3COB(O)C3)n2)ccc1OC` (single isomer, unassigned) [Example 128, 4-(6-(4-methoxy-3-propoxyphenyl)pyridin-2-yl)-1,2-oxaborolan-2-ol], the IC50 in test [1] (Homo sapiens, PBMC) amounted to 2.25 nM; in test [2] (Homo sapiens, PBMC) it was 53.1 nM; in test [3] it was 5.74 nM; in test [4] (Homo sapiens, PBMC), 667 nM.

The record behind these values is patent US11559538B2, “Substituted 1,2-oxaborolan-2-ols as PDE4 inhibitors” (Pfizer Inc., priority 2018, dated 2023).
